Experimental data published in patent US11253497B2, “Use of derivatives of polyunsaturated fatty acids as medicaments” (Lipopharma Therapeutics, S.L., priority 2009, dated 2022).

Key:
TNF-α = assay: Production of TNF-α in serum of LPS-injected C57BL6/J mice; format: in vivo; settings: LPS 20 μg i.p. (100%), 200 mg/kg p.o.
Procedure, shortened: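 C57BL6/J mice given intraperitoneal LPS (20 μg) to induce inflammation, then dosed orally with derivatives at 200 mg/kg. Serum TNF-α measured.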

α-synuclein = assay: Expression of α-synuclein in neuronal cultures (cells P19); format: cell-based; settings: untreated cells 100%
COX-2 = assay: Expression of COX-2 in LPS-stimulated monocytes in culture; format: cell-based, human; settings: positive control with LPS 100%
Procedure, shortened: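 Cultured monocytes stimulated with LPS; COX-2 protein level expressed as % inhibition relative to the LPS-only positive control (100%).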

Jurkat cells = assay: Human leukaemia (Jurkat cells); format: cell-based; settings: 72 hours
Experimental: (§1) Overall, it may be seen that the series of compounds A and B are the best, so the effectiveness of these series against the development of leukaemia and liver cancer (Tables 9 and 10) was tested.

[1] = Serum cholesterol, triglycerides and glucose in SHR rats (colorimetric); format: in vivo, rat; settings: 200 mg/kg daily p.o., 28 days, untreated rats 100%
Procedure, shortened: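 SHR rats dosed p.o. at 200 mg/kg daily for 28 days; serum cholesterol, triglycerides and glucose measured colorimetrically. Values given as percent of untreated control rats, set at 100%.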

B6 healthy mice = assay: Radial maze in control animals (B6 healthy mice); format: in vivo; settings: 20 mg/kg daily po, 3 months
Experimental: To test the efficacy of the compounds of the present invention to induce neuroregeneration or inhibit neurodegeneration, an animal model of Alzheimer's disease was used. In this model mice develop neurodegeneration because they express a series of mutant proteins that lead to brain damage (Alzh mice). B6 mice were used as healthy animal controls. Both groups of animals were treated for a period of 3 months with vehicle (water) or with various D-PUFA (20 mg/kg, daily po) since they were an age of 3 months. To determine whether cognitive improvement occurred after treatment, animal behaviour was monitored in the radial maze. The animals are kept on restricted diet to have appetite. In a symmetrical 8-arm radial maze, visual marks were placed to facilitate the orientation of the animal and food (15 mg tablet) was put in four of the arms. The time each animal took to complete the exercise, and the number of errors, were measured using a camera attached to a computer system. In this sense, Alzheimer animals have values about 50% higher than healthy animals, both by the time it takes to perform the exercise and by the number of errors made (FIG. 4B). […] In this regard, the effectiveness of the compound 183B1, 205A1, 205B1, 226A1, 226 V1 was also tested, showing improvements in animals with Alzheimer's disease (times of 98, 92, 93, 86 and 89 seconds, respectively). On the other hand, it is also interesting that these same compounds (183B1, 205A1, 205B1, 226A1, 226B1 and 226V1) also produced reductions in the times taken to complete the experiment in control animals (B6 healthy mice) of 8s, 11s, 12s, 18s, 16s and 14s, respectively. Therefore, it may be concluded that these compounds have significant activity against neurodegeneration and in neuroregeneration.

HepG2 cells = assay: Liver cancer (HepG2 cells); format: cell-based; settings: 72 hours
Experimental: These charts show the antitumor efficacy of the compounds of this invention against the growth of breast cancer cells, brain (glioma), and lung cancer. […] The other experimental conditions are identical to those described in the preceding paragraph.
as §1

3T3 cells = assay: Percentage of total PUFAs in membranes of 3T3 cells treated with fatty acids (gas chromatography); format: cell-based; settings: 100 μM, 48 hours, mean ± SEM of four measures, control 32.4 ± 2.1
From the text: To perform these experiments, membranes were extracted and total fatty acids were obtained by hydrolysis in basic medium. Methanolic bases of these fatty acids were quantified by gas chromatography. The data shown are averages of four independent measures of PUFA's mass divided by the total fatty acids and expressed as a percentage. It is also shown is standard error of the mean.
The control corresponds to a culture without the presence of added natural or synthetic fatty acids. Cells in their natural form present PUFAs in their membranes, but the presence in the medium of the D-PUFA molecules of the invention increases these levels of PUFAs in the cell membrane.

[2] = system: heterotrimeric Gi1 protein; assay: Binding of heterotrimeric Gi1 protein to model membranes (centrifugation, immunoblotting); settings: phosphatidylcholine:phosphatidylethanolamine (6:4) 2 mM phospholipid, 0.1 μM D-PUFA; control 100 ± 5; in % (unit assumed)
From the text: The net result is a regulation of cell signalling leading to the reversal of various pathological processes, as shown later. […] The Control is a sample of model membranes in the absence of fatty acids.

CCC=CCC=CCC=CCCCCCCC(O)C(=O)[O-].[Na+] (centres unmarked) [183B1]
Production of TNF-α in serum (TNF-α): 81% | Expression of α-synuclein (α-synuclein): 43% | COX-2 protein levels (expression), percentages of inhibition compared to positive control (COX-2): 33% | IC50 (Jurkat cells): 196 µM | Cholesterol in serum (top number) [1]: 75% | Glucose in serum (bottom number) [1]: 84% | Triglycerides in serum (central number) [1]: 66% | Reduction in the time taken to complete the experiment (B6 healthy mice): 8 s

CCC=CCC=CCC=CCC=CCC=CCCC(O)C(=O)O (centres unmarked) [205A1, 2-hydroxy-5,8,11,14,17-eicosapentaenoic acid]
Production of TNF-α in serum (TNF-α): 56% | IC50 (HepG2 cells; Homo sapiens, HepG2): 401 µM | Expression of α-synuclein (α-synuclein): 35% | COX-2 protein levels (expression), percentages of inhibition compared to positive control (COX-2): 31% | Percentage of total PUFA (3T3 cells): 46.7 ± 3.4% | G protein binding [2]: 406 ± 14 | IC50 (Jurkat cells; Homo sapiens, Jurkat): 376 µM | Cholesterol in serum (top number) [1]: 69% | Glucose in serum (bottom number) [1]: 82% | Triglycerides in serum (central number) [1]: 74% | Reduction in the time taken to complete the experiment (B6 healthy mice): 11 s

CCC=CCC=CCC=CCC=CCC=CCCC(O)C(=O)[O-].[Na+] (centres unmarked) [205B1]
Production of TNF-α in serum (TNF-α): 69% | Expression of α-synuclein (α-synuclein): 41% | COX-2 protein levels (expression), percentages of inhibition compared to positive control (COX-2): 39% | IC50 (Jurkat cells): 294 µM | Cholesterol in serum (top number) [1]: 58% | Glucose in serum (bottom number) [1]: 87% | Triglycerides in serum (central number) [1]: 65% | Reduction in the time taken to complete the experiment (B6 healthy mice): 12 s

CCC=CCC=CCC=CCC=CCC=CCC=CCC(O)C(=O)O (centres unmarked) [226A1]
Production of TNF-α in serum (TNF-α): 73% | IC50 (HepG2 cells): 164 µM | Expression of α-synuclein (α-synuclein): 23% | COX-2 protein levels (expression), percentages of inhibition compared to positive control (COX-2): 23% | Percentage of total PUFA (3T3 cells): 48.9 ± 3.7% | G protein binding [2]: 422 ± 26 | IC50 (Jurkat cells): 85 µM | Cholesterol in serum (top number) [1]: 64% | Glucose in serum (bottom number) [1]: 79% | Triglycerides in serum (central number) [1]: 71% | Reduction in the time taken to complete the experiment (B6 healthy mice): 18 s
